Where “and” joins values, the source holds several entries; their conditions need not be identical. Equal values may be shown once.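 Method: 48-hour compound exposure of cells in 96-well plates, five concentrations, linear interpolation of endpoints. GI50: concentration for 50% inhibition of growth. Definition used: TGI = concentration required for complete inhibition of growth.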
What was measured:
Experiment in all cases: NCI anticancer screen, dose series, 48 h
T-47D breast = system: T-47D breast
A549 NSCLC = system: A549 NSCLC
KM12 colon = system: KM12 colon
HOP-92 NSCLC = system: HOP-92 NSCLC
SF-295 CNS = system: SF-295 CNS
NCI-H226 lung = system: NCI-H226 lung
M14 melanoma = system: M14 melanoma
MDA-MB-231 breast = system: MDA-MB-231 breast
PC-3 prostate = system: PC-3 prostate
ACHN renal = system: ACHN renal
MDA-N = system: MDA-N

Row | SMILES | TGI (T-47D breast) [µM] | TGI (A549 NSCLC) | TGI (KM12 colon) | TGI (HOP-92 NSCLC) | TGI (SF-295 CNS) | TGI (NCI-H226 lung) | TGI (M14 melanoma) | TGI (MDA-MB-231 breast) | TGI (PC-3 prostate) | TGI (ACHN renal) | TGI (MDA-N) | GI50 (A549 NSCLC) | GI50 (KM12 colon) | GI50 (HOP-92 NSCLC) | GI50 (NCI-H226 lung) | GI50 (M14 melanoma) | GI50 (MDA-MB-231 breast) | GI50 (ACHN renal) | GI50 (MDA-N)
1 | O=C(O)CN1CCN(CC(=O)O)CCN(CC(=O)O)CCN(CC(=O)O)CC1 | > 100 | > 100 µM | > 100 µM | > 100 µM | > 100 µM | > 100 µM | > 100 µM | > 100 µM | > 100 µM | > 100 µM | > 100 µM | – | – | – | – | – | – | – | –
2 | COC(=N)C12C(N)=NC(OC)(OC)C1(C#N)C21C(=O)N(c2ccccc2)N=C1C (stereo unspecified) | > 100 | > 100 µM | > 100 µM | > 100 µM | > 100 µM | > 100 µM | > 100 µM | > 100 µM | > 100 µM | > 100 µM | > 100 µM | – | – | – | – | – | – | – | –
3 | Cc1cc2c(s1)C(=O)c1sccc1C2=O | 3.02 | 2.03 µM | 3 µM | 2.97 µM | 1.15 µM | 3.37 µM | 0.356 µM | 2.89 µM | 4.93 µM | 2.23 µM | 0.308 µM | – | – | – | – | – | – | – | –
4 | O=C1N=C(c2ccccc2)O/C1=C\c1ccccc1 | > 100 | > 100 µM | > 100 µM | > 100 µM | > 100 µM | > 100 µM | > 100 µM | > 100 µM | > 100 µM | > 100 µM | > 100 µM | – | – | – | – | – | – | – | –
5 | CCCCc1c2c(nc3c1CCC/C3=C\c1ccccc1)C(=O)C(CN(C)C)CC2 (stereo unspecified) | 14 | 37.3 µM | 33.6 µM | 33.5 µM | 33.3 µM | 51.6 µM | 33.7 µM | 31.9 µM | 29.1 µM | 29.5 µM | 21.1 µM | – | – | – | – | – | – | – | –
6 | CN(C)CCNc1ccc2c(=O)n(CCN(C)C)c(=O)n3c4ccc(N)cc4c(=O)c1c23 | 4.64 | 0.599 µM | 7.52 µM | 0.87 µM | 1.07 µM | 0.573 µM | 0.449 µM | 0.866 µM | 0.477 µM | 0.734 µM | 0.219 µM | – | – | – | – | – | – | – | –
7 | O=C1CC2(CCC(O)(c3ccc(Cl)cc3)C(C(=O)c3ccc(Cl)cc3)C2)C(=O)c2ccccc2N1 (stereo unspecified) | > 72.3 | > 50.8 µM | > 100 µM | 8.31 µM | 39.5 µM | > 52.5 µM | > 100 µM | 30.6 µM | > 100 µM | 25.4 µM | 98.1 µM | – | – | – | – | – | – | – | –
8 | CC1NC(/C(=C/c2ccccc2O)NC(=O)c2ccccc2)OC1=O (stereo unspecified) | > 50 | > 50 µM | > 50 µM | 46.6 µM | > 50 µM | > 50 µM | > 50 µM | > 50 µM | > 50 µM | > 50 µM | > 50 µM | – | – | – | – | – | – | – | –
9 | CC(C)/C=N\n1c(N)c(C#N)c(C#N)c1C(C)C | 66.3 | > 100 µM | > 100 µM | 38.3 µM | 73.7 µM | 64.6 µM | > 100 µM | > 100 µM | 47.2 µM | 91.1 µM | 76.6 µM | – | – | – | – | – | – | – | –
10 | O=C1/C(=C\c2cccc(Oc3ccccc3)c2)SC(c2ccccc2)N1c1ccc(Cl)cc1 (stereo unspecified) | > 100 | > 100 µM | > 100 µM | > 100 µM | > 100 µM | > 100 µM | > 100 µM | > 100 µM | > 100 µM | > 100 µM | > 87.9 µM | – | – | – | – | – | – | – | –
11 | CCC(=O)COc1ccc(NC(NC(=O)C(C(F)(F)F)C(F)(F)F)(C(F)(F)F)C(F)(F)F)cc1 | 68.8 | > 100 µM | > 100 µM | > 100 µM | > 100 µM | 47.6 µM | > 100 µM | 54.2 µM | > 100 µM | > 100 µM | 83.9 µM | – | – | – | – | – | – | – | –
12 | CC(=O)O[C@H]1C(=O)[C@@]2(C)[C@H]([C@H](OC(=O)C3CCCCC3)[C@]3(O)C[C@H](OC(=O)[C@H](O)[C@@H](NC(=O)C4CCCCC4)C4CCCCC4)C(C)=C1C3(C)C)[C@]1(OC(C)=O)CO[C@@H]1C[C@@H]2O | 3.4 | 20.9 µM | 5.53 µM | 4.72 µM | 0.176 µM | 3.88 µM | 1.2 µM | 0.476 µM | 1.96 µM | 12.4 µM | 0.00852 µM | – | – | – | – | – | – | – | –
13 | O=S1(=O)CCN(Cc2ccccc2)/C1=N\S(=O)(=O)c1ccc(Cl)cc1 | 39.5 | > 100 µM | > 100 µM | 35.3 µM | > 100 µM | 34.4 µM | 32.9 µM | > 100 µM | 36.7 µM | 33.1 µM | 32.2 µM | – | – | – | – | – | – | – | –
14 | COc1ccc(OC)c2nc3c(C(=O)NCCN(C)C)cccc3nc12 | > 100 | > 34.7 µM | 22.3 µM | 50.2 µM | 25.6 µM | 27.5 µM | 15.8 µM | 19.3 µM | 17.9 µM | > 100 µM | 16 µM | – | – | – | – | – | – | – | –
15 | Cc1ccc(S(=O)(=O)NNC(=S)Nc2cccc3ccccc23)cc1 | > 100 | > 100 µM | 99 µM | 86 µM | > 100 µM | 95.2 µM | > 100 µM | > 100 µM | > 100 µM | 79.9 µM | > 100 µM | – | – | – | – | – | – | – | –
16 | COc1cc2cc(C(=O)N3CC(CCl)c4ccc(NCCN)cc43)[nH]c2c(OC)c1OC (stereo unspecified) | 5.19 | 12.5 µM | 1.07 µM | 4 µM | 1.44 µM | 1.76 µM | 0.716 µM | 1.9 µM | 2.07 µM | 0.768 µM | 0.432 µM | – | – | – | – | – | – | – | –
17 | C/C=C(/C)C(=O)O[C@H]1C(C)=C[C@]23C(=O)[C@@H](C=C(COC(C)=O)[C@@H](O)[C@]12O)[C@H]1[C@@H](C[C@H]3C)[C@@]1(C)OC(=O)/C(C)=C\C | 3.29 | 9.34 µM | 4.06 µM | 6.34 µM | 5.01 µM | 7.52 µM | 5.47 µM | 8.18 µM | 4.75 µM | 4.39 µM | 6.35 µM | – | – | – | – | – | – | – | –
18 | Cn1c2nc3ccccc3c-2cc2ccccc21 | > 100 | 33.2 µM and 88.7 µM | 11 µM and 46.4 µM | 30.7 µM and 46.7 µM | > 40.5 µM and 20.8 µM | 19.3 µM and 31.5 µM | > 42.2 µM and 23.6 µM | > 60.7 µM and 33.1 µM | > 45.9 µM and 23.6 µM | 15.2 µM and > 100 µM | 30.1 µM and 23.1 µM | 3.38 µM and 7.11 µM | 2.19 µM and 6.02 µM | 3.06 µM and 11.7 µM | 3.46 µM and 11.2 µM | 4.29 µM and 11.2 µM | 5.58 µM and 11.6 µM | 2.06 µM and 4.8 µM | 4.27 µM and 10.4 µM
